Consider three compounds from publication PMC6023986, “Interactions Between Emodin and Efflux Transporters on Rat Enterocyte by a Validated Ussing Chamber Technique” (Frontiers in Pharmacology, 2018).

For data set [1], the target named is MRP2 (Rattus norvegicus, UniProt Q63120). Description: Ussing chamber bidirectional transport, model validation for MRP2 (pravastatin substrate, MK571 inhibitor). Format: in vitro ADME. Details: intestinal segments including duodenum, jejunum, ileum, and colon from anesthetized rats were immediately removed by surgery; from tissue; host or cells: stripped rat intestine (jejunum and ileum in validation; jejunum for the emodin studies). The settings on record: jejunum and ileum, MK571 186 μM, pravastatin as substrate. The text has this: (§1) The four intestinal segments including duodenum, jejunum, ileum, and colon from anesthetized rats were immediately removed by surgery and washed with KRB solution. Each section of the intestinal segments was then placed in cold (on ice), bubbled (O2:CO2 95:5) KRB buffer. The four intestinal segments were then cut into 2 cm pieces, respectively, and serosas were removed by blunt dissection. Peyer’s patches were excluded from the experiment by visually identified. The stripped tissues were mounted in chambers with exposed surface area of 0.49 cm^2. Temperature of the chambers was maintained at 37 ± 0.5°C. Each of the half-cells in the chambers was filled with 5 mL fresh KRB buffer (pH 6.5). Tissue viability was continuously controlled by potential difference (PD).
Chain of MRP2 (Q63120 whole entry): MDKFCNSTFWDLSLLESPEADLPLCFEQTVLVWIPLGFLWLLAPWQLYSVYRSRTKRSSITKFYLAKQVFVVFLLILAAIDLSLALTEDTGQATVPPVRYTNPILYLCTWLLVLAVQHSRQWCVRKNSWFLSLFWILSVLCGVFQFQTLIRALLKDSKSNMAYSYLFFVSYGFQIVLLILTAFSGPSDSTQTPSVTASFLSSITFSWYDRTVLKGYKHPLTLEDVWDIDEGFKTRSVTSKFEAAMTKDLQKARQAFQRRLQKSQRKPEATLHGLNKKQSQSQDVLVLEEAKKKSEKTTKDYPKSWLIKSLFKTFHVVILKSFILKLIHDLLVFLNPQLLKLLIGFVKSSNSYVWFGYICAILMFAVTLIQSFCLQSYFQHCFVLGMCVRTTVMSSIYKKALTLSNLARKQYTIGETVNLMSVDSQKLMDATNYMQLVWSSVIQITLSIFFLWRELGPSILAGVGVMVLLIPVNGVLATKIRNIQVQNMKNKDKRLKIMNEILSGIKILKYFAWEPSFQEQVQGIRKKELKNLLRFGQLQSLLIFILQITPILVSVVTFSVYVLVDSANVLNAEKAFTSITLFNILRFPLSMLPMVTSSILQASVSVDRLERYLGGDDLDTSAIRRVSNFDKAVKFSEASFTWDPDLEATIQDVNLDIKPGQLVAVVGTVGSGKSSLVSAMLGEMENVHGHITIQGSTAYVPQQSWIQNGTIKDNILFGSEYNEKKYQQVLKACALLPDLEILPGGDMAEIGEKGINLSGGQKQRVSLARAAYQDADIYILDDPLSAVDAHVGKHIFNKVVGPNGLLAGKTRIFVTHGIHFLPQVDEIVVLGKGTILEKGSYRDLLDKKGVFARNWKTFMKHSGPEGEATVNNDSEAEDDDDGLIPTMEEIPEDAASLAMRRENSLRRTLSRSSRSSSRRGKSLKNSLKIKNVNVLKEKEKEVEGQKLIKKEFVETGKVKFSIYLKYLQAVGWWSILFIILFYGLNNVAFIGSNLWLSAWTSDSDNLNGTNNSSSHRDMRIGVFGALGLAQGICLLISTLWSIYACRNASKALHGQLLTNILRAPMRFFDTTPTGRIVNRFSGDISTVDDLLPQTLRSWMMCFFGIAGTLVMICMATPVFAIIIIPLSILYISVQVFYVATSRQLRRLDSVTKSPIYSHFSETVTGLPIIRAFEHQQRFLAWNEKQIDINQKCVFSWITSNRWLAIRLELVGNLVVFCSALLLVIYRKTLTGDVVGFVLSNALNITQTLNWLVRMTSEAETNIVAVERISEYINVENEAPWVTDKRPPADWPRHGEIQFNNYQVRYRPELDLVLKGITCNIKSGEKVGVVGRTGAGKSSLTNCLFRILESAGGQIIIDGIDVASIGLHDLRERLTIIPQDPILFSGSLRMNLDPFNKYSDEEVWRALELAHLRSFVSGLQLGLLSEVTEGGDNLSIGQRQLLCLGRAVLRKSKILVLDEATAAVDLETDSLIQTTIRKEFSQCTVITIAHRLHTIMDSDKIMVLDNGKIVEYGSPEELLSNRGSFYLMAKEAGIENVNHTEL
(§2) Digoxin, pravastatin, and teniposide were employed as the test substrates of P-gp, MRP2, and MRP3. […] The experiments were started after 30 min equilibration time, by changing the KRB buffer on both sides; 5 mL KRB solution with different test compounds was filled in the mucosal or serosal compartment; meanwhile, equal volume fresh buffer was added to the other compartment. […] The bidirectional transport studies with specific inhibitors were assessed to validate this model whether or not suitable for P-gp, MRP2, and MRP3 studies.
(§3) Frozen samples were adequately vortexed after thawing at the room temperature; 10 μL suitable IS solution was added to 200 μL samples; 200 μL methanol was added after a thorough vortex mixing for 30 s. The mixtures were then vortexed for 30 s and centrifuged at 15,000 rpm for 30 min. Finally, 5 μL of supernatant was injected into the LC-MS/MS system.
The quantifications of the compounds were performed by the TSQ Quantum Ultra Triple Quadrupole LC-MS/MS system from Thermo Fisher Scientific. […] Adaptive gradient elution methods were applied for the analytes. The flow rate of the mobile phase was kept at 0.2 mL min^-1. Flow was directed to the ion spray interface. All measurements were carried out in negative ESI mode. Ion spray voltage was -2500 V. Vaporizer and capillary temperatures were set at 250 and 350°C, respectively. Auto sampler temperature was set at 10°C. Sheath gas and aux gas were set at 30 and 15 Arb, respectively. […] Peak integrations and calibrations were carried out using LC Quan 2.5.2 software from Thermo Fisher Scientific.
(§4) where Cn (nM) is the concentration of the drug at the time point (n), Q (nM) is the accumulated absorption amount, A is the exposed surface area of the intestine (0.49 cm^2), dQ/dt (nM⋅s^-1) is the amount of the drug transported, and C0 (nM) is the initial concentration of the test drug. Experiments were performed in batches, so control groups were set as one for each batch.

The subject of data set [2] is P-gp. Description: Influence of emodin on P-gp function: digoxin bidirectional transport in the presence of emodin (Ussing chamber). The data set is classed as in vitro ADME. The conditions noted are these: rat jejunum; for Papp at 25 μM: rat.
Text: as §1, with “(PD). Tissue with electrical values less than 2 mV was refused ([Moazed and Hiebert, 2007]; [Heinen et al., 2013]).” for “(PD).”
In this study, the effects of the three efflux transporters on emodin intestinal absorption were investigated. Meanwhile, the influence of emodin on intestinal P-gp, MRP2, and MRP3 functions were also discussed. Solutions with three concentrations (low, middle, and high) of emodin were filled in the mucosal or serosal compartment to measure the bidirectional transport characteristic. […] In the emodin impact experiments, digoxin, pravastatin, and teniposide were employed as P-gp, MRP2, and MRP3 substrates. Changes of the bidirectional transport characteristic were measured before and after adding emodin to the mucosal side.
as §3
(§5) The quantifications of the compounds were performed by the TSQ Quantum Ultra Triple Quadrupole LC-MS/MS system from Thermo Fisher Scientific. Chromatography was carried out using an Agilent Poroshell 120 SB-C18 (2.7 μm, 2.1 mm × 100 mm) column with a Phenomenex AFO-8497 C18 pre-column, operating at 30°C. Adaptive gradient elution methods were applied for the analytes. The flow rate of the mobile phase was kept at 0.2 mL min^-1. Flow was directed to the ion spray interface. All measurements were carried out in negative ESI mode. Ion spray voltage was -2500 V. Vaporizer and capillary temperatures were set at 250 and 350°C, respectively. Auto sampler temperature was set at 10°C. Sheath gas and aux gas were set at 30 and 15 Arb, respectively. […] Peak integrations and calibrations were carried out using LC Quan 2.5.2 software from Thermo Fisher Scientific.
(§6) The Q (accumulative quantity), Papp (apparent permeability), Er (efflux ratio), Pr (Papp ratio), and Err (Er ratio) across the excited rat intestinal segments in the Ussing chamber were calculated using the following equations ([Li et al., 2012]; [Huang et al., 2016]): […]
as §4

The subject of data set [3] is P-gp. As to the kind of experiment: in vitro. The settings on record: rat.
Data set [4] concerns the target T1, MRP3 (Rattus norvegicus, UniProt O88563).
T1 construct: intestinal segments including duodenum, jejunum, ileum, and colon from anesthetized rats were immediately removed by surgery; from tissue; host or cells: stripped rat intestine (jejunum and ileum in validation; jejunum for the emodin studies)
Description: Ussing chamber bidirectional transport, model validation for MRP3 (teniposide substrate, benzbromarone inhibitor). The data set is classed as in vitro ADME. The conditions noted are these: jejunum and ileum, benzbromarone 470 μM, teniposide as substrate.
Text: as §1, with “(PD). Tissue with electrical values less than 2 mV was refused ([Moazed and Hiebert, 2007]; [Heinen et al., 2013]).” for “(PD).”
as §2, with “studies. Samples were stored at –80°C until analysis ([Deusser et al., 2013]).” for “studies.”
as §3, §5, §6, §4

Like-named read-outs stand apart in the source and are kept apart here.

T1 sequence (O88563 whole entry): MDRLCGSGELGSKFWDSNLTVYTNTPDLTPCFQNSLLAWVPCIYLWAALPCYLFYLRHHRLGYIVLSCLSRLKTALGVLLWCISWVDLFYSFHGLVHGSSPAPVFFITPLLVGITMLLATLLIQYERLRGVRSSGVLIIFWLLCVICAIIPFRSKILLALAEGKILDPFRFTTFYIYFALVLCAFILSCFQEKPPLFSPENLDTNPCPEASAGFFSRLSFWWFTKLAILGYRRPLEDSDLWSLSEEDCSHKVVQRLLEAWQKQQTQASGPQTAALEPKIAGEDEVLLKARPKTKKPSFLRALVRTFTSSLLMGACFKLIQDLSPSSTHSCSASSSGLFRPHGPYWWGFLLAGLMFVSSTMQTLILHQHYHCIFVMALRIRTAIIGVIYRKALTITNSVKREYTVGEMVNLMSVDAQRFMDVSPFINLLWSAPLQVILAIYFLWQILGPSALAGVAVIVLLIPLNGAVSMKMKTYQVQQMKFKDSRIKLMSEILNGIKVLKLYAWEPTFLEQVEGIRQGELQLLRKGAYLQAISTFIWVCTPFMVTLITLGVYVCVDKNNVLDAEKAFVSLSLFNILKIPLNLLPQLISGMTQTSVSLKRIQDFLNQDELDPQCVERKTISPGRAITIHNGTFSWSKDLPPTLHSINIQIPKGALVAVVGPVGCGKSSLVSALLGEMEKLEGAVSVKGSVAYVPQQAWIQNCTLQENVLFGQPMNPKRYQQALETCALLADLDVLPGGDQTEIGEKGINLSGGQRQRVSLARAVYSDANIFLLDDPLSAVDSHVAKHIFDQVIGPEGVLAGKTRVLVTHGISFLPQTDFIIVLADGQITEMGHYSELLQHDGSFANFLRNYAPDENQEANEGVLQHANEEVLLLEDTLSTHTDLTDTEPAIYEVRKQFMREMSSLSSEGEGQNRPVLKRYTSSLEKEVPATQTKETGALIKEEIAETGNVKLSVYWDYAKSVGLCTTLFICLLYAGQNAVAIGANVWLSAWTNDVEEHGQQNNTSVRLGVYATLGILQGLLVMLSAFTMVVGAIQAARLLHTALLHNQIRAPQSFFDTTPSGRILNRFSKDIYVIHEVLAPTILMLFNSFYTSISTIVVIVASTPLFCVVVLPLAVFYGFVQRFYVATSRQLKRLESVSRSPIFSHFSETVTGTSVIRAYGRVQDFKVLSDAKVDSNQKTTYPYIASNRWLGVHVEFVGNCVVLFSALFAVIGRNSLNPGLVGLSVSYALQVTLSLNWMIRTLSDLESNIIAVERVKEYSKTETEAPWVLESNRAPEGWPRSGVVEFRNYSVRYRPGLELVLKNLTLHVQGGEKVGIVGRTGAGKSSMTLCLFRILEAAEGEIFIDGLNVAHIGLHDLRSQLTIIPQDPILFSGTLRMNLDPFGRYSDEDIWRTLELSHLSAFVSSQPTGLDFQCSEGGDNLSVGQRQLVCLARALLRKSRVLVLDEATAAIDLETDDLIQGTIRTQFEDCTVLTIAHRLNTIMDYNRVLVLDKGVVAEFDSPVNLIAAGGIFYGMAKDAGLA

For `CN(C)C(=O)CCSC(SCCC(=O)O)c1cccc(/C=C/c2ccc3ccc(Cl)cc3n2)c1` (stereo not drawn) [MK571], the “Inhibition effect on MRP2” value in data set [1] was “significant inhibition effect”.

For `C[C@H]1O[C@@H](O[C@H]2[C@@H](O)C[C@H](O[C@H]3[C@@H](O)C[C@H](O[C@H]4CC[C@@]5(C)[C@H](CC[C@@H]6[C@@H]5C[C@@H](O)[C@]5(C)[C@@H](C7=CC(=O)OC7)CC[C@]65O)C4)O[C@@H]3C)O[C@@H]2C)C[C@H](O)[C@@H]1O` [Digoxin], the “Change of Er values of digoxin after adding emodin” value in data set [2] (digoxin 25 μM, emodin 185, 370, 740 μM) was “significant higher”. The apparent permeability (Papp) at 25 μM in data set [2] (pH 6.5, digoxin 25 μM, without emodin, read-out: Papp M-S, control) was 91.6 ± 41 ×10⁻⁶ cm/s; in data set [2] (pH 6.5, digoxin 25 μM, without emodin, read-out: Papp S-M, control), 152 ± 43.9 ×10⁻⁶ cm/s; in data set [2] (pH 6.5, with emodin 185 μM on mucosal side, digoxin 25 μM, emodin 185 μM on mucosal side, read-out: Papp M-S in the presence of emodin), 55.8 ± 29.8 ×10⁻⁶ cm/s; in data set [2] (pH 6.5, with emodin 185 μM on mucosal side, digoxin 25 μM, emodin 185 μM on mucosal side, read-out: Papp S-M in the presence of emodin), 257 ± 47.6 ×10⁻⁶ cm/s; in data set [2] (pH 6.5, with emodin 370 μM on mucosal side, digoxin 25 μM, emodin 370 μM on mucosal side, read-out: Papp M-S in the presence of emodin), 49 ± 12.8 ×10⁻⁶ cm/s; in data set [2] (pH 6.5, with emodin 370 μM on mucosal side, digoxin 25 μM, emodin 370 μM on mucosal side, read-out: Papp S-M in the presence of emodin), 461 ± 191 ×10⁻⁶ cm/s. In addition, the Papp at 25 μM in data set [2] (pH 6.5, with emodin 740 μM on mucosal side, digoxin 25 μM, emodin 740 μM on mucosal side, read-out: Papp M-S in the presence of emodin) is 20.4 ± 7.6 ×10⁻⁶ cm/s; in data set [2] (pH 6.5, with emodin 740 μM on mucosal side, digoxin 25 μM, emodin 740 μM on mucosal side, read-out: Papp S-M in the presence of emodin) it was 142 ± 29.7 ×10⁻⁶ cm/s. The apparent permeability (Papp) amounted to 63.1 ± 33.1 ×10⁻⁶ cm/s in data set [3] (pH 6.5, Papp M-S, control, rat colon, without inhibitor); 72.5 ± 32.8 ×10⁻⁶ cm/s in data set [3] (pH 6.5, Papp M-S, control, rat duodenum, without inhibitor); 43.1 ± 15 ×10⁻⁶ cm/s in data set [3] (pH 6.5, Papp M-S, control, rat ileum, without inhibitor); 57.8 ± 11.2 ×10⁻⁶ cm/s in data set [3] (pH 6.5, Papp M-S, control, rat jejunum, without inhibitor); 137 ± 66.3 ×10⁻⁶ cm/s in data set [3] (pH 6.5, Papp S-M, control, rat colon, without inhibitor); 186 ± 144 ×10⁻⁶ cm/s in data set [3] (pH 6.5, Papp S-M, control, rat duodenum, without inhibitor). Besides, the Papp stood at 228 ± 136 ×10⁻⁶ cm/s in data set [3] (pH 6.5, Papp S-M, control, rat ileum, without inhibitor); 270 ± 125 ×10⁻⁶ cm/s in data set [3] (pH 6.5, Papp S-M, control, rat jejunum, without inhibitor); 45.3 ± 23.2 ×10⁻⁶ cm/s in data set [3] (pH 6.5, with verapamil 220 μM, mucosal side, Papp M-S, with inhibitor, rat duodenum, with verapamil 220 μM on mucosal side); 191 ± 90.5 ×10⁻⁶ cm/s in data set [3] (pH 6.5, with verapamil 220 μM, mucosal side, Papp M-S, with inhibitor, rat ileum, with verapamil 220 μM on mucosal side); 119 ± 58.5 ×10⁻⁶ cm/s in data set [3] (pH 6.5, with verapamil 220 μM, mucosal side, Papp M-S, with inhibitor, rat jejunum, with verapamil 220 μM on mucosal side); 79.7 ± 32.2 ×10⁻⁶ cm/s in data set [3] (pH 6.5, with verapamil 220 μM, mucosal side, Papp S-M, with inhibitor, rat duodenum, with verapamil 220 μM on mucosal side). The Papp in data set [3] (pH 6.5, with verapamil 220 μM, mucosal side, Papp S-M, with inhibitor, rat ileum, with verapamil 220 μM on mucosal side) came out at 157 ± 108 ×10⁻⁶ cm/s; in data set [3] (pH 6.5, with verapamil 220 μM, mucosal side, Papp S-M, with inhibitor, rat jejunum, with verapamil 220 μM on mucosal side), 96.4 ± 86.4 ×10⁻⁶ cm/s; in data set [3] (pH 6.5, with verapamil 440 μM, mucosal side, Papp M-S, with inhibitor, rat colon, with verapamil 440 μM on mucosal side), 189 ± 34.3 ×10⁻⁶ cm/s; in data set [3] (pH 6.5, with verapamil 440 μM, mucosal side, Papp S-M, with inhibitor, rat colon, with verapamil 440 μM on mucosal side) it was 191 ± 40.1 ×10⁻⁶ cm/s.

On to `CCc1oc2ccccc2c1C(=O)c1cc(Br)c(O)c(Br)c1` [Benzbromarone], for which, in data set [4], the “Inhibition effect on MRP3” value was “significant inhibition effect”.

As a reminder, the Papp is a coefficient for how fast a substance crosses the barrier.
